Experimental data from patent US20120171166A1, “SYNBIOTIC COMBINATION OF PROBIOTIC AND HUMAN MILK OLIGOSACCHARIDES TO PROMOTE GROWTH OF BENEFICIAL MICROBIOTA” (ABBOTT LABORATORIES, priority 2010, published 2012).
Entries after “also recorded” stand apart in the source; their conditions may differ.

Key:
[1] = tested on: B. infantis ATCC 15697; experiment: Bacterial growth assay (OD600), B. infantis ATCC 15697; assay type: cell-based, Bifidobacterium infantis; conditions: 1% carbohydrate in sMRS+cysteine
Experimental: (§1) All bifidobacteria strains are initially inoculated from frozen stocks, grown in deMan Rogosa Sharpe (MRS) broth (Difco, Detroit, Mich.) supplemented with 0.5 g/L L-cysteine and incubated at 37° C. for 24 h in an anaerobic chamber (90% N2, 5% CO2 and 5% H2). Subsequently, the cultures are passed twice on a semi-synthetic MRS medium (sMRS)+0.5 g/L L-cysteine which is supplemented with 1% (w/v) filter-sterilized glucose as the sole carbohydrate source. After the 2nd pass, cultures are prepared to use as inoculums for growth assays described below. For bifidobacteria strains, the same procedure is followed except all media are supplemented with 0.5 g/l L-cysteine/HCl.
(§2) After the 2nd pass in sMRS+glucose+cysteine, the cultures are washed once with 10 mL of sterile sMRS+cysteine (no carbohydrate), resuspended in 10 ml of sterile sMRS+cysteine (no carbohydrate) and then used as a 1% inoculum. The carbohydrates are sterilized with a 0.22 micron filter and used at a 1% final concentration. Cell growth is performed in 250 μL of sMRS+cysteine covered with 50 μL of mineral oil in a Bioscreen 100-well Honeycomb plate. Cell growth is monitored by measuring optical density at 600 nm (OD600) using a Bioscreen C Automated Microbiology Growth Curve Analysis System. The plate reader is operated in discontinuous mode, with absorbance readings performed in 30-minute intervals, and preceded by 30-second shaking intervals at maximum speed. Controls consist of inoculated medium lacking carbohydrate. Due to space limitations on the microtitre plate, the carbohydrates are divided into three separate groups: plate A (HMO precursors: glucose, galactose, lactose, NAG, fucose, fructose and sialic acid), plate B (Prebiotics: glucose, Purimune™ GOS, purified Purimune™ GOS, Vivinal® GOS, purified Vivinal® GOS, scFOS and PDX), and plate C (HMOs: glucose, 6′-SL, 3′-SL, 2′-FL, 3′-FL and LNnT). All three plates include a positive control (glucose) and negative control (no carbohydrate).
(§3) The OD600 data for each carbohydrate is corrected by subtracting the OD600 of the basal media (sMRS) from the sample plate for each probiotic. Maximum OD is determined by inspection of the corrected growth data. OD is determined by subtracting the initial corrected OD (time point 0) from the maximum corrected OD. Samples are grown in biologically independent triplicates and the resulting growth kinetic data are expressed as the mean of these replicates.
(§4) For the growth curve plots, OD600 vs. time is first plotted for the bacteria grown on medium lacking carbohydrate (sMRS). For all other carbohydrates, the OD600 data is corrected by subtracting the OD600 of sMRS.

[2] = tested on: infant fecal inoculum (diluted feces); experiment: In vitro fermentation model simulating large bowel fermentation with infant fecal inoculum (Example 36); assay type: cell-based, human infant; conditions: for pH change from baseline: at 3, 6, and 12 h after inoculation, comparison among substrates (P<0.0001)
[3] = tested on: enteric nerve cells; experiment: Peristalsis model using luminally perfused mouse colon (Example 35); conditions: colon muscle perfused at 1, 0.5 and 0.1 mg/mL for 15 minutes; for stimulation of enteric nerve cells: without involving gut microbiota and/or their metabolites
Experimental: In this Example, the effect of 2′-fucosyllactose (2′FL) or 3′ fucosyllactose (3′FL) on stimulating enteric nerve cells in the gastrointestinal tract of rodents is analyzed.
Specifically, a peristalsis model using luminally perfused mouse colon is used to test the stimulation effect of 2′FL or 3′FL on enteric nerve cells. Colon muscle is perfused with 2′FL or 3′FL, at concentrations of 1 mg/mL, 0.5 mg/mL, and 0.1 mg/mL, for 15 minutes. The frequency and amplitude of contractions of the muscle is analyzed.

[4] = tested on: Bifidobacterium spp. (12 bifidobacteria strains); experiment: Bacterial growth assay (OD600), all bifidobacteria strains tested (Example 37); assay type: cell-based; conditions: for growth / ability to ferment the carbohydrate (OD600): carbohydrate at 1% final concentration in sMRS+cysteine, all bifidobacteria tested
Experimental: as §1, §2, §3, §4

[5] = tested on: B. infantis M-63; experiment: Bacterial growth assay (OD600), B. infantis M-63; assay type: cell-based, Bifidobacterium infantis; conditions: 1% carbohydrate in sMRS+cysteine
Experimental: as §1, §2, §3, §4

[6] = tested on: B. breve ATCC 15700; experiment: Bacterial growth assay (OD600), B. breve ATCC 15700; assay type: cell-based, Bifidobacterium breve; conditions: 1% carbohydrate in sMRS+cysteine
Experimental: as §1
After the 2nd pass in sMRS+glucose+cysteine, the cultures are washed once with 10 mL of sterile sMRS+cysteine (no carbohydrate), resuspended in 10 ml of sterile sMRS+cysteine (no carbohydrate) and then used as a 1% inoculum. The carbohydrates are sterilized with a 0.22 micron filter and used at a 1% final concentration. […] Cell growth is monitored by measuring optical density at 600 nm (OD600) using a Bioscreen C Automated Microbiology Growth Curve Analysis System. The plate reader is operated in discontinuous mode, with absorbance readings performed in 30-minute intervals, and preceded by 30-second shaking intervals at maximum speed. […]

| Compound | growth / ability to ferment the carbohydrate (OD600) [1] | fermentation rate [2] | growth / ability to ferment the carbohydrate (OD600) [4] | growth / ability to ferment the carbohydrate (OD600) [5] | fermentation rate class (rapidly-, medium-, slowly-fermented oligosaccharide) [2] | further results |
| --- | --- | --- | --- | --- | --- | --- |
| 2′-fucosyllactose [2′FL] | able to ferment | about 4,872 μg/g of dry matter/hour | only B. infantis ATCC 15697 and B. infantis M-63 are able to ferment | able to ferment |  | pH change from baseline [2]: greatest; amplitude of contraction [3]: reduced consistently and in a dose response fashion; frequency of contraction [3]: reduced consistently and in a dose response fashion; stimulation of enteric nerve cells [3]: direct stimulation of nerve cells; stimulation of enteric nerve cells ([3]; listed as 2′-fucosyllactose): stimulates enteric nerve cells |
| 3′-fucosyllactose [3′FL] | able to ferment |  | only B. infantis ATCC 15697 and B. infantis M-63 are able to ferment | able to ferment | Medium-fermented | amplitude of contraction [3]: reduced consistently and in a dose response fashion; effectiveness on gut motility, 3′FL compared with 2′FL [3]: more effective than 2′FL; frequency of contraction [3]: reduced consistently and in a dose response fashion; stimulation of enteric nerve cells [3]: direct stimulation of nerve cells |
| CC(=O)N[C@H]1[C@H](O[C@H]2[C@@H](O)[C@@H](CO)O[C@@H](O[C@H]3[C@H](O)[C@@H](O)C(O)O[C@@H]3CO)[C@@H]2O)O[C@H](CO)[C@@H](O[C@@H]2O[C@H](CO)[C@H](O)[C@H](O)[C@H]2O)[C@@H]1O (mixture of isomers) [LNnT, Lacto-N-Neotetraose] | grow well; also recorded: able to ferment | about 4,488 μg/g of dry matter/hour |  | grow well; also recorded: able to ferment |  | pH change from baseline [2]: greatest; growth / ability to ferment the carbohydrate (OD600) [6]: grow well; also recorded: able to ferment |
| CC(=O)N[C@H]1[C@H]([C@H](O)[C@H](O)CO)O[C@@](O[C@H]2[C@@H](O)[C@@H](CO)O[C@@H](O[C@H]3[C@H](O)[C@@H](O)C(O)O[C@@H]3CO)[C@@H]2O)(C(=O)O)C[C@@H]1O (stereo partly shown) [3′SL, 3′-sialyllactose] | able to ferment |  | only B. infantis ATCC 15697 and B. infantis M-63 are able to ferment | able to ferment | Medium-fermented |  |
| CC(=O)N[C@H]1[C@H]([C@H](O)[C@H](O)CO)O[C@@](OC[C@H]2O[C@@H](O[C@H]3[C@H](O)[C@@H](O)[C@H](O)O[C@@H]3CO)[C@H](O)[C@@H](O)[C@H]2O)(C(=O)O)C[C@@H]1O [6′SL, 6′-sialyllactose] | able to ferment | about 1,809 μg/g of dry matter/hour | only B. infantis ATCC 15697 and B. infantis M-63 are able to ferment | able to ferment | Medium-fermented | total SCFA production ([2]; 12 h of fermentation): greater (P<0.05) for the 6′SL and GOS substrates compared to 2′FL; total SCFA production ([2]; after 3 and 6 h of fermentation): lower (P<0.05) with 6′SL compared to GOS |
| C[C@H](O)[C@@H](O)[C@@H](O)[C@H](O)C=O [L-fucose, L-(−) Fucose] | not able to ferment |  | None of the bifidobacteria are able to ferment | not able to ferment |  |  |
| CC(=O)N[C@H]1C(O)O[C@H](CO)[C@@H](O)[C@@H]1O (stereo partly drawn) [NAG, N-acetyl-D-glucosamine] |  |  | Only B. breve ATCC 15700 is able to ferment |  |  | growth / ability to ferment the carbohydrate (OD600) [6]: able to ferment |
| O=C(CO)[C@@H](O)[C@H](O)[C@H](O)CO [fructose, D-Fructose] |  |  | majority of bifidobacteria is able to ferment |  |  |  |
| OC[C@H]1O[C@@H](O[C@H]2[C@H](O)[C@@H](O)[C@@H](O)O[C@@H]2CO)[C@H](O)[C@@H](O)[C@H]1O [lactose, α-Lactose] |  |  |  |  |  | growth on the carbohydrate (OD600) ([4]; 1% carbohydrate, bifidobacteria which are not able to ferment galactose): reduced growth |
| CC(=O)N[C@H]1[C@H]([C@H](O)[C@H](O)CO)OC(O)(C(=O)O)C[C@@H]1O (stereo partly shown) [sialic acid, N-acetylneuraminic acid] | not able to ferment |  | None of the bifidobacteria are able to ferment | not able to ferment |  |  |
